Measurements: the CheMixHub drug solubility set

Assay: xn = mol fraction of the nth substance listed, in the solute-free solvent

COC1=CC(=O)CC(C)C12Oc1c(Cl)c(OC)cc(OC)c1C2=O (stereo not drawn) + CCC(C)=O + CC(C)O
solubility (g/100 g solution)
Conditions	283.15 K	288.15 K	293.15 K	298.15 K	303.15 K	308.15 K	313.15 K	318.15 K	323.15 K
x2 = 0.1	0.162	0.217	0.254	0.338	0.391	0.463	0.543	0.669	0.836
x2 = 0.2	0.326	0.374	0.44	0.557	0.606	0.77	0.892	1.05	1.26
x2 = 0.3	0.497	0.571	0.668	0.821	0.894	1.11	1.28	1.52	1.79
x2 = 0.4	0.684	0.779	0.9	1.11	1.23	1.44	1.68	1.93	2.25
x2 = 0.5	0.96	1.07	1.21	1.4	1.59	1.85	2.11	2.4	2.79
x2 = 0.6	1.22	1.37	1.51	1.75	1.98	2.26	2.58	2.92	3.41
x2 = 0.7	1.5	1.66	1.8	2.07	2.31	2.62	2.97	3.34	3.79
x2 = 0.8	1.7	1.87	2.04	2.37	2.6	2.94	3.29	3.75	4.16
x2 = 0.9	1.84	2.02	2.22	2.58	2.81	3.18	3.52	4	4.41

O=C(O)c1ccc(C(=O)O)o1 + O + COCCOC
solubility (g/100 g solution)
Conditions	303.15 K	308.15 K	313.15 K	318.15 K	323.15 K	328.15 K	333.15 K	338.15 K	343.15 K
x2 = 0.1	1.42	1.44	1.5	1.57	1.65	1.75	1.83	1.93	2.05
x2 = 0.2	2.73	2.79	2.9	3.02	3.16	3.31	3.48	3.7	3.94
x2 = 0.3	3.75	3.9	4.06	4.22	4.39	4.58	4.79	5.05	5.33
x2 = 0.4	4.61	4.81	5.03	5.24	5.47	5.78	6.11	6.45	6.82
x2 = 0.5	5.53	5.75	6.03	6.31	6.69	7.05	7.45	7.81	8.16
x2 = 0.6	6.14	6.36	6.59	6.86	7.15	7.49	7.86	8.22	8.61
x2 = 0.7	5.57	5.8	6.08	6.35	6.64	6.93	7.24	7.62	8.03
x2 = 0.8	4.68	4.88	5.09	5.35	5.55	5.83	6.13	6.48	6.86
x2 = 0.9	4.41	4.57	4.74	4.91	5.11	5.32	5.55	5.87	6.22

O=C(O)c1ccc(C(=O)O)o1 + C1COCCO1 + O
solubility (g/100 g solution)
Conditions	303.15 K	308.15 K	313.15 K	318.15 K	323.15 K	328.15 K	333.15 K	338.15 K	343.15 K
x2 = 0.1	1.85	1.98	2.15	2.38	2.63	2.92	3.24	3.48	3.73
x2 = 0.2	3.44	3.54	3.81	4.02	4.28	4.56	4.78	5.12	5.5
x2 = 0.3	3.8	4.14	4.34	4.76	5.21	5.62	6.07	6.46	7.05
x2 = 0.4	4.76	5.23	5.55	5.79	6.04	6.37	6.72	7.27	7.87
x2 = 0.5	4.37	4.77	5.03	5.38	5.75	6.1	6.48	6.97	7.5
x2 = 0.6	3.77	4.11	4.39	4.66	5	5.3	5.63	6.04	6.44
x2 = 0.7	3.03	3.32	3.51	3.71	3.94	4.25	4.48	4.89	5.36
x2 = 0.8	2.38	2.62	2.75	2.96	3.11	3.32	3.55	3.81	4.1
x2 = 0.9	1.3	1.42	1.54	1.73	1.93	2.11	2.35	2.61	2.87
